Test results published in US9540613B2, “Methods for producing insulin-secreting beta cells from human pluripotent stem cells” (Wisconsin Alumni Research Foundation, priority 2013, dated 2017).

Columns and labels:
[1] = system: PDX1 and insulin protein expression in H1 cells; assay: Flow cytometry of PDX1 and insulin protein expression at end of Stage 4; assay type: cell-based, human; conditions: for PDX1 and insulin double positive cells: loss of both nicotinamide and Exendin-4 from Stage 4 medium
Text: To quantify insulin and PDX1 protein expression we optimized a flow cytometry assay. […] The INS-1 cell line is an immortalized pancreatic beta cell line that expresses both PDX1 and insulin. On the bottom left, is our negative control, unstained H1 cells differentiated for 18 days. On the right, is H1 cells differentiated by the current protocol through day 18 stained with Insulin-PB and PDX1-AF488. […] Only 8-11% of the cells are PDX1 and insulin double positive.
To examine protein expression we collected cells at the end of Stage 4 and examined them by flow cytometry.
Thus, the effect of Noggin is context dependent and synergistic with nicotinamide and Exendin-4.

[2] = system: PDX1, NKX6.1, Neurogenin 3 and insulin gene expression; assay: QPCR gene expression of endoderm and pancreatic markers in differentiated cells; assay type: cell-based, human; conditions: presence or absence of nicotinamide at Stage 3
Procedure: QPCR was performed at the end of Stage 4 ([…] Day 18) to examine gene expression of PDX1, a marker of pancreatic epithelium and progenitor cells, insulin, a marker of beta cells, and Sox9 which is expressed in the developing pancreatic epithelium. The gene expression is compared to undifferentiated cells collected at Day 0 and β-Actin is the internal control. […] Human Fetal Pancreas (HFP), gestation 14-20 weeks, is represented as a positive control.
In FIG. 19, the gene expression is compared to undifferentiated cells collected at Day 0 and B-Actin is the internal control. On the y axis is delta CT (instead of fold change), thus, the lower the value the greater the gene expression.
First, alterations at Stage 3 and 4 altered gene expression minimally. […] On the y axis is delta CT (instead of fold change), thus, the lower the value the greater the gene expression. […] In contrast the addition of Noggin at Stage 4, decreased PDX1 and NKX6.1 gene expression and increased Neurogenin 3 expression. There was no difference in insulin gene expression following the addition of Noggin to Stage 4.

[3] = addition of nicotinamide at Stage 3, cells at end of Stage 4

Row | Molecule | PDX1 protein expression [1, 3] | double positive PDX and insulin positive cells [1, 3] | insulin protein expression [1, 3] | PDX1 and insulin double positive cells [1] | protein expression ([1]; loss of nicotinamide from Stage 4 medium) | gene expression (delta CT) [2] | protein expression of either PDX1 or insulin ([1]; loss of Exendin-4 from Stage 4 medium) | insulin protein expression ([1]; FGF2 instead of FGF7 at Stage 2)
1 | NC(=O)c1cccnc1 [nicotinamide] | decreased | little difference | increased | increases PDX1 and insulin double positive cells | little to no loss | did not alter gene expression | – | –
2 | Exendin-4: a long-acting GLP-1 agonist | – | – | – | increases PDX1 and insulin double positive cells | – | – | little to no difference | –
3 | FGF2: Basic fibroblast growth factor | – | – | – | – | – | – | – | less insulin protein expression
